Test results published in patent publication US20110027325A1, “ORALLY-ADMINISTERED AGENT” (Lintec Corporation, priority 2008, published 2011).

Assay: Viscosity of aqueous solution, E-type viscometer
Format: physicochemical
Details: 37° C.
Experimental: Tables 1 and 2 shown the constituent materials of the respective layers of the orally-administered agents obtained in the respective Examples and the respective Comparative Examples and the contents thereof. […] Furthermore, the viscosity of the water absorption promoter in the Table 1 and the viscosity of the antiadhesive agent in the Table 2 denote a viscosity at 37° C. of an aqueous solution of 5 mass % of the water absorption promoter and the antiadhesive agent, respectively. Each viscosity was measured with an E-type viscometer (a product of Tokimec, Inc.).

OC[C@@H](O)[C@@H](O)[C@H](O)[C@H](O)CO [Man, mannitol]
Viscosity of antiadhesive agent (aqueous solution of 5 mass % of the antiadhesive agent): 0.87 mPa · s
Viscosity of water absorption promoter (aqueous solution of 5 mass % of the water absorption promoter): 0.87 mPa · s
